Reference: PubChem BioAssay AID342 (DTP/NCI, 2004)

System: Swiss mice, Sarcoma 180 sc, mean tumor weight T/C
Assay: NCI In Vivo Anticancer Drug Screen. Data for tumor model Sarcoma 180 (subcutaneous) in Swiss mice
Conditions: endpoint: mean tumor weight, higher = larger tumour
Summary of the method: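 Transplantable tumors were established in mice, compound was given, then survival or tumor size was recorded. The treated value was divided by the vehicle-control value.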

[1] = dose: 40.0 mg/kg/injection, schedule: Q01DX007 (ip), vehicle: saline

Nc1c(Br)cc2c(c1Br)Cc1cc([N+](=O)[O-])ccc1-2
T/C (dose: 74.0 mg/kg/injection, schedule: Q01DX007 (ip), vehicle: other): 77 % of control
T/C (dose: 111.0 mg/kg/injection, schedule: Q#A X014 (ip), vehicle: saline): 27 % of control
T/C (dose: 148.0 mg/kg/injection, schedule: Q01DX007 (ip), vehicle: carboxymethylcellulose (CMC)): 92 % of control
T/C (dose: 148.0 mg/kg/injection, schedule: Q01DX007 (ip), vehicle: other): 96 % of control
T/C (dose: 148.0 mg/kg/injection, schedule: Q01DX007 (ip), vehicle: saline): 56 % of control
T/C (dose: 166.5 mg/kg/injection, schedule: Q#A X014 (ip), vehicle: saline): 21 % of control
T/C (dose: 222.0 mg/kg/injection, schedule: Q01DX007 (ip), vehicle: other): 42 % of control
T/C (dose: 222.0 mg/kg/injection, schedule: Q01DX007 (ip), vehicle: saline): 64 % of control
T/C (dose: 250.0 mg/kg/injection, schedule: Q#A X014 (ip), vehicle: saline): 21 % of control
T/C (dose: 333.0 mg/kg/injection, schedule: Q01DX007 (ip), vehicle: other): 40 % of control
T/C (dose: 333.0 mg/kg/injection, schedule: Q01DX007 (ip), vehicle: saline): 67 % of control
T/C (dose: 500.0 mg/kg/injection, schedule: Q01DX007 (ip), vehicle: saline): 54 % of control

O=c1cn[nH]c(=O)[nH]1
T/C (dose: 62.5 mg/kg/injection, schedule: Q#A X014 (ip), vehicle: carboxymethylcellulose (CMC)): 103 % of control
T/C (dose: 125.0 mg/kg/injection, schedule: Q#A X014 (ip), vehicle: carboxymethylcellulose (CMC)): 77 % of control
T/C (dose: 250.0 mg/kg/injection, schedule: Q#A X014 (ip), vehicle: carboxymethylcellulose (CMC)): 73 % of control
T/C (dose: 500.0 mg/kg/injection, schedule: Q#A X014 (ip), vehicle: carboxymethylcellulose (CMC)): 45 % of control

Cc1cc(C)c(N)c(C)c1N
T/C (dose: 187.5 mg/kg/injection, schedule: Q#A X014 (ip), vehicle: methylcellulose (MC)): 48 % of control

CC(=O)OCC(=O)[C@@]1(O)CC[C@H]2[C@@H]3C[C@H](C)C4=CC(=O)C=C[C@]4(C)[C@@]3(F)[C@@H](O)C[C@@]21C
T/C (dose: 125.0 mg/kg/injection, schedule: Q01DX007 (sc), vehicle: steriod suspending solution): 41 % of control
T/C (dose: 187.0 mg/kg/injection, schedule: Q01DX007 (sc), vehicle: steriod suspending solution): 30 % of control

C=CCOc1ccc2c(c1)CC[C@@H]1[C@@H]2CC[C@]2(C)[C@@H](O)[C@H](O)C[C@@H]12
T/C (dose: 2.5 mg/kg/injection, schedule: Q01DX007 (sc), vehicle: steriod suspending solution): 105 % of control
T/C (dose: 5.0 mg/kg/injection, schedule: Q01DX007 (sc), vehicle: steriod suspending solution): 120 % of control
T/C (dose: 10.0 mg/kg/injection, schedule: Q01DX007 (sc), vehicle: steriod suspending solution): 82 % of control

Cc1cc(N(CCCl)CCCl)ccc1N=Nc1ccccc1C(=O)O
T/C (dose: 5.3 mg/kg/injection, schedule: Q01DX007 (ip), vehicle: carboxymethylcellulose (CMC)): 33 % of control
T/C (dose: 8.0 mg/kg/injection, schedule: Q01DX007 (ip), vehicle: carboxymethylcellulose (CMC)): 50 % of control
T/C (dose: 12.0 mg/kg/injection, schedule: Q01DX007 (ip), vehicle: carboxymethylcellulose (CMC)): 61 % of control
T/C (dose: 18.0 mg/kg/injection, schedule: Q01DX007 (ip), vehicle: carboxymethylcellulose (CMC)): 27 % of control

Cc1cc2nc3c(=O)[nH]c(=O)nc-3n(CC(O)C(O)C(O)C(O)CO)c2cc1C (stereo not drawn)
T/C (dose: 31.25 mg/kg/injection, schedule: Q01DX007 (ip), vehicle: carboxymethylcellulose (CMC)): 87 % of control
T/C (dose: 38.25 mg/kg/injection, schedule: Q01DX007 (ip), vehicle: carboxymethylcellulose (CMC)): 54 % of control
T/C (dose: 62.5 mg/kg/injection, schedule: Q01DX007 (ip), vehicle: carboxymethylcellulose (CMC)): 66 % of control
T/C (dose: 76.5 mg/kg/injection, schedule: Q01DX007 (ip), vehicle: carboxymethylcellulose (CMC)): 48 % of control
T/C (dose: 125.0 mg/kg/injection, schedule: Q01DX007 (ip), vehicle: carboxymethylcellulose (CMC)): 83 % of control
T/C (dose: 153.0 mg/kg/injection, schedule: Q01DX007 (ip), vehicle: carboxymethylcellulose (CMC)): 63 % of control
T/C (dose: 250.0 mg/kg/injection, schedule: Q01DX007 (ip), vehicle: carboxymethylcellulose (CMC)): 60 % of control
T/C (dose: 306.0 mg/kg/injection, schedule: Q01DX007 (ip), vehicle: carboxymethylcellulose (CMC)): 57 % of control

CCCCCCCCCCCCCCCCCC1=NC(C)CC(C)(C)O1 (stereo not drawn)
T/C (dose: 187.5 mg/kg/injection, schedule: Q#A X014 (ip), vehicle: saline): 63 % of control

CN(/N=N/c1nc[nH]c1C(N)=O)c1ccccc1
T/C (dose: 15.5 mg/kg/injection, schedule: Q#A X014 (ip), vehicle: methylcellulose (MC)): 89 % of control
T/C (dose: 31.0 mg/kg/injection, schedule: Q#A X014 (ip), vehicle: methylcellulose (MC)): 99 % of control
T/C (dose: 62.5 mg/kg/injection, schedule: Q#A X014 (ip), vehicle: methylcellulose (MC)): 46 % of control

CC(=O)[C@H]1CC[C@H]2[C@@H]3C[C@H](F)C4=CC(=O)CC[C@]4(C)[C@@]3(F)[C@@H](O)C[C@]12C
T/C (dose: 25.0 mg/kg/injection, schedule: Q01DX007 (sc), vehicle: steriod suspending solution): 65 % of control
T/C (dose: 37.0 mg/kg/injection, schedule: Q01DX007 (sc), vehicle: steriod suspending solution): 49 % of control
T/C (dose: 282.0 mg/kg/injection, schedule: Q01DX007 (sc), vehicle: steriod suspending solution): 41 % of control
T/C (dose: 423.0 mg/kg/injection, schedule: Q01DX007 (sc), vehicle: steriod suspending solution): 36 % of control

CO[C@H](C(=O)[C@@H](O)[C@@H](C)O)[C@@H]1Cc2cc3cc(OC4CC(OC5CC(O)C(O)C(C)O5)C(O)C(C)O4)c(C)c(O)c3c(O)c2C(=O)[C@H]1OC1CC(OC2CC(OC3CC(C)(O)C(O)C(C)O3)C(O)C(C)O2)C(O)C(C)O1 (stereo partly drawn)
T/C (dose: 0.25 mg/kg/injection, schedule: Q01DX007 (ip), vehicle: water): 72 % of control
T/C (dose: 0.3 mg/kg/injection, schedule: Q01DX007 (ip), vehicle: water): 50 % of control
T/C (dose: 0.3 mg/kg/injection, schedule: Q02DX004 (ip), vehicle: water): 74 % of control
T/C (dose: 0.45 mg/kg/injection, schedule: Q01DX007 (ip), vehicle: water): 45 % of control
T/C (dose: 0.45 mg/kg/injection, schedule: Q02DX004 (ip), vehicle: water): 80 % of control
T/C (dose: 0.5 mg/kg/injection, schedule: Q01DX007 (ip), vehicle: water): 57 % of control
T/C (dose: 0.6 mg/kg/injection, schedule: Q02DX004 (ip), vehicle: water): 47 % of control
T/C (dose: 1.0 mg/kg/injection, schedule: Q01DX007 (ip), vehicle: water): 102 % of control
T/C (dose: 1.0 mg/kg/injection, schedule: Q02DX004 (ip), vehicle: water): 80 % of control
T/C (dose: 2.0 mg/kg/injection, schedule: Q01DX007 (ip), vehicle: water): 72 % of control
T/C (dose: 2.0 mg/kg/injection, schedule: Q02DX004 (ip), vehicle: water): 67 % of control
T/C (dose: 3.0 mg/kg/injection, schedule: Q02DX004 (ip), vehicle: water): 50 % of control
T/C (dose: 4.0 mg/kg/injection, schedule: Q02DX004 (ip), vehicle: water): 60 % of control
T/C (dose: 5.0 mg/kg/injection, schedule: Q02DX004 (ip), vehicle: water): 50 % of control

COc1ccc2[nH]c3c(C)c4ccncc4c(C)c3c2c1
T/C (dose: 6.2 mg/kg/injection, schedule: Q01DX007 (ip), vehicle: carboxymethylcellulose (CMC)): 81 % of control
T/C (dose: 12.5 mg/kg/injection, schedule: Q01DX007 (ip), vehicle: carboxymethylcellulose (CMC)): 77 % of control
T/C (dose: 25.0 mg/kg/injection, schedule: Q01DX007 (ip), vehicle: carboxymethylcellulose (CMC)): 33 % of control
T/C (dose: 27.0 mg/kg/injection, schedule: Q01DX007 (ip), vehicle: saline): 72 % of control
T/C [1]: 88 % of control
T/C (dose: 50.0 mg/kg/injection, schedule: Q01DX007 (ip), vehicle: carboxymethylcellulose (CMC)): 27 % of control
T/C (dose: 50.0 mg/kg/injection, schedule: Q01DX007 (ip), vehicle: steriod suspending solution): 97 % of control
T/C (dose: 60.0 mg/kg/injection, schedule: Q01DX007 (ip), vehicle: saline): 50 % of control
T/C (dose: 75.0 mg/kg/injection, schedule: Q01DX007 (ip), vehicle: carboxymethylcellulose (CMC)): 25 % of control
T/C (dose: 75.0 mg/kg/injection, schedule: Q01DX007 (ip), vehicle: steriod suspending solution): 46 % of control
T/C (dose: 90.0 mg/kg/injection, schedule: Q01DX007 (ip), vehicle: saline): 24 % of control
T/C (dose: 150.0 mg/kg/injection, schedule: Q01DX007 (ip), vehicle: carboxymethylcellulose (CMC)): 19 % of control
T/C (dose: 150.0 mg/kg/injection, schedule: Q01DX007 (ip), vehicle: steriod suspending solution): 31 % of control

CCCCSc1ncnc2nc[nH]c12
T/C (dose: 44.0 mg/kg/injection, schedule: Q01DX007 (ip), vehicle: carboxymethylcellulose (CMC)): 55 % of control
T/C (dose: 51.0 mg/kg/injection, schedule: Q01DX007 (ip), vehicle: carboxymethylcellulose (CMC)): 53 % of control
T/C (dose: 93.0 mg/kg/injection, schedule: Q01DX007 (ip), vehicle: carboxymethylcellulose (CMC)): 41 % of control

O=C1C=CC2(CCC23C=CC(=O)O3)O1 (stereo not drawn)
T/C [1]: 88 % of control
